Assay results published in patent US11116212B2, “Carbonyl containing compounds for controlling and repelling Cimicidae populations” (SemiosBio Technologies Inc., priority 2011, dated 2021).
Counter-ions that a name gives are not always drawn. Like-named read-outs stand apart in the source and are kept apart here.

System: bed bugs, Cimex lectularius
Test: Bed bug repellency bioassay, glass tube olfactometer arena
Format: in vivo
Details: Cimex lectularius; for pest or weed control at 5 % strength / pest or weed control at 1 %: gauze; for pest or weed control at 5 % strength: 50 uL, 5% w/v in hexane; for pest or weed control at 1 %: 10 uL, 1% v/v in hexane; for pest or weed control at 25 % strength: 20 uL, 25% w/w in hexane
Procedure: Per individual bioassay, 10 adult or late instar nymph bed bugs, Cimex lectularius, of mixed sex. Bed bugs sourced from wild, field populations and tested within 2 weeks of capture. Subjects were tested one time, only.
(ii) Olfactometer consisting of a glass tube. Tube ends were plugged to prevent egress of test subjects. Test substrates were placed at opposite ends of the tube. Tube Olfactometer includes a port in the centre for introduction of test subjects. Dimensions of the tube were 15.2 mm in diameter by 304.8 mm long.
Compounds were either purchased from commercial sources or synthesized using conventional synthetic organic chemistry techniques (see, for example, Examples 5 to 7). Some compounds (014, 058 and 080) were tested in duplicate (one version from commercial sources and one synthesized) and the best performance is reported in the Tables below. Of the tested compounds reported in the Tables below, the following compounds were synthesized: 006, 010, 017, 018, 040, 041 to 043, 045, 046, 048, 049, 058, 067 to 075, 079, 080 to 082, 089 and 090.
Test compounds consisted of a control and treatment. The treatment consisted of a test compound mixed as a percentage w/w in a suitable solvent. The test compound solvent itself was used as a control. Solvents used were hexane, hexane:methanol, or dichloromethane:methanol.
(i) Gauze cut to a standard size and folded upon itself to provide harbourage for test subjects.
(iii) Absorbent polymer “aroma” beads that were given sufficient time to fully absorb test compounds and control solvents.
In the case of gauze and filter paper substrates, control solvents and test mixtures of known concentrations and volumes were dispensed directly onto substrates using a pipette. For polymer beads, beads were mixed w/w with solvent or test compound in a small glass jar. The jars were occasionally agitated to facilitate soaking of the beads.
Immediately after the substrates were infused with test compounds and control solvents, test subjects were introduced to the centre of the selected observation arena. […] Only subjects that were in close contact with the treatment or control substrates were recorded. Subjects elsewhere in the arena were not included in repellency calculations. Percentage repellency was calculated based on a modification of Abbott's formula to account for negative repellency (attraction). Specifically: IF(C>=T,(C−T)/C*100,(T−C)/T*−100)
where C is number of test subjects in contact with control substrate and T is number of test subjects in contact with treatment substrate.
All average repellency results reported in the table are based on 3 replicates for each reported trial, with each trial involving at least 3 observation periods. The observation periods were short-term (30 min), medium-term (1-2 hours), and long-term (24-48 hours). The “overall average” reported in the table represents the average for 3 replicates for 3 observation periods. […]
To determine whether compounds could be combined in the repellent compositions, compounds 14 and 35 were each tested at a concentration of 5% (w/w), and as a combination comprising each compound at a concentration of 2.5% (w/w). The formulations were tested as described in Example 1 using the olfactometer configuration.

[1] = average of 3 replicates x 3 observation periods, read-out: % Repellency (% R), Overall Average
[2] = beads, average of 3 replicates x 3 observation periods, read-out: % Repellency (% R), Overall Average

| Compound | pest or weed control at 5 % strength [1] [%] | other results |
| --- | --- | --- |
| CCCCC/C=C/C=O [Compound 039, trans-2-octenal] | 78 | – |
| CCC(=O)/C=C/c1ccco1 [Compound 040, (E)-1-(furan-2-yl)pent-1-en-3-one] | > 80 | – |
| CCCCC(=O)/C=C/CO [Compound 041, (E)-1-hydroxyoct-2-en-4-one] | > 80 | – |
| CCC(=O)/C=C/C(C)O (stereo not shown) [Compound 042, (E)-6-hydroxyhept-4-en-3-one] | 76 | – |
| C=CCNC(=O)CC [Compound 043, N-allylpropionamide] | 59 | – |
| CC(=O)CC/C=C(\C)CCC=C(C)C [Compound 044, 6,10-dimethyl-5,9-undecadien-2-one] | > 80 | – |
| CCC(=O)NCC(OC)OC [Compound 045, N-(2,2-dimethoxyethyl) propionamide] | 70 | – |
| CCCC(=O)/C=C/CO [Compound 046, (E)-1-hydroxyhept-2-en-4-one] | 65 | – |
| CCC(=O)/C(C)=C/c1ccco1 [Compound 048, (E)-1-(furan-2-yl)-2-methylpent-1-en-3-one] | > 80 | – |
| CCC(=O)N(C)CC(OC)OC [Compound 049, N-(2,2-dimethoxyethyl)-N-methylpropionamide] | – | pest or weed control at 1 % [1]: 78% |
| CCCC(=O)CCC [Compound 051, 4-heptanone] | – | pest or weed control at 25 % strength [2]: > 80% |
| COC(=O)CCC=O [Compound 052, Methyl 4-oxobutanoate] | – | pest or weed control at 25 % strength [2]: -17%; pest or weed control at 25 % strength (beads, best single observation (one repetition, one time), read-out: % Repellency, At least One Time >50%): 100%; pest or weed control at 25 % strength (observation period T1, beads, read-out: % Repellency T1 (average of 3 repetitions)): 11%; pest or weed control at 25 % strength (observation period T2, beads, read-out: % Repellency T2 (average of 3 repetitions)): -50%; pest or weed control at 25 % strength (observation period T3, beads, read-out: % Repellency T3 (average of 3 repetitions)): -11% |
| CN(C)C(=O)CCC(=O)O [Compound 053, 4-(Dimethylamino)-4-Oxobutanoic acid] | – | pest or weed control at 1 % [1]: 52% |
| CCC(=O)C(=O)OC [Compound 054, Methyl-2-oxobutanoate] | – | pest or weed control at 1 % [1]: > 80% |
| COC(=O)/C=C/C(C)=O [Compound 056, Methyl trans-4-oxo-2-pentenoate] | 53 | – |
| CCOC(=O)/C=C(\C)C=O [Compound 057, Ethyl 3-methyl-4-oxocrotonate] | – | pest or weed control at 25 % strength [2]: > 80% |
| COC(=O)/C=C/C(=O)OC [Compound 058, dimethyl fumarate] | > 80 | – |
| CCC(=O)OCC1CCCO1 (stereo not shown) [Compound 060, Tetrahydro furfuryl propionate] | – | pest or weed control at 25 % strength [2]: 78% |
